Assay results reported in patent US20190106498A1, “TREATMENT FOR ACUTE MYELOID LEUKEMIA” (priority 2017, published 2019).

Key:
[1] = test system: LSCs; experiment: CD70 expression on LSCs of AML patients treated with HMA; format: in vivo, human; conditions: newly diagnosed AML patients after HMA treatment
Protocol: (FIG. 2A) Representative FACS plots of CD70 expression on lin-CD90+CD34+CD38− AML stem/progenitor cells after culture in the presence or absence of 0.5 mM decitabine (D) or vehicle (Veh). Isotype: grey; CD70: black. (FIG. 2B) Cell Viability. (FIG. 2C) Fold change ΔMFI CD70 and (FIG. 2D) mRNA CD70 expression (AML: n=9-15; healthy: n=3). (FIG. 2E) Representative FACS plot and (FIG. 2F) fold change ΔMFI CD70 on stem/progenitor cells in the peripheral blood of AML patients at diagnosis and after 1 cycle of decitabine or azacitidine treatment (D(5), 20 mg/kg, daily for 5 days; A(7), 75 mg/m^2, daily for 7 days).

[2] = test system: AML; conditions: aza alone; cited from earlier work

Nc1ncn([C@@H]2O[C@H](CO)[C@@H](O)[C@H]2O)c(=O)n1 [azacitidine]
CD70 expression on LSCs compared to level at diagnosis [1]: increase in CD70 expression | response rate [2]: approximately 25%
